What follows are compounds tested against recombinant human 15-PGDH (Homo sapiens (Human), UniProt P15428) (assay: 15-PGDH enzyme inhibition test). Details: 4 nM recombinant human 15-PGDH, 30 μM PGE2, 1 mM NAD+, fluorescence 340/440 nm after 60 min.
Format: biochemical
Description: 15-PGDH Enzyme Inhibition Test
Test compounds and 4 nM recombinant human 15-PGDH (R&D systems) in 50 mM Tris-HCl (pH 8.0) containing 0.01% TWEEN 20 (Sigma) and 0.01% bovine gamma globulin (Sigma) were put into 384 Flat Bottom Black plates (Corning, 3820) and allowed to stand for 12 minutes at room temperature. Then, 30 μM PGE2 (Cayman chemical) and 1 mM NAD^+ (Sigma) were added to start reaction. Sixty minutes after the start of reaction, signals were measured at an excitation wavelength of 340 nm and a fluorescence emission wavelength of 440 nm using Synergy 2 (BioTeck). The intensity of the fluorescent signal obtained when an assay buffer was added in place of the test compounds and NAD^+ was defined as 100% and that obtained with the addition of NAD^+ was defined as 0%.

Chain of recombinant human 15-PGDH (P15428 whole entry): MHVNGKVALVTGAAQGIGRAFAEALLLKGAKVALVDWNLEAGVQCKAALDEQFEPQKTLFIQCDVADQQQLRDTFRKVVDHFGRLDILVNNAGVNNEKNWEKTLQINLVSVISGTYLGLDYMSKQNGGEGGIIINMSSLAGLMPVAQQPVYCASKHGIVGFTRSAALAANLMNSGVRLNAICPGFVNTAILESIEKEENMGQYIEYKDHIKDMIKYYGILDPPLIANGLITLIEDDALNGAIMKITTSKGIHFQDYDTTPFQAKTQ

SMILES	IC50
O=C(c1ccc2c(-c3ccc4c(c3)CN(CC3(C(F)(F)F)CC3)C4=O)cccc2c1)N1CCC(F)(F)CC1 [compound 113]	3 to 10 nM
CN1Cc2cc(-c3cccc4cc(C(=O)N5CC=CCC5)ccc34)cnc2C1=O [compound 152]	< 3 nM
O=C(c1ccc2c(N3CCN4C(=O)CCC4C3)cccc2c1)N1CCCCC1 (centres unmarked) [compound 12]	3 to 10 nM
CN1Cc2cc(-c3cncc4cc(C(=O)N5CCC(F)(F)CC5)ccc34)ccc2C1=O [compound 120]	< 3 nM
CN1Cc2cc(-c3cccc4cc(C(=O)N5CCC[C@H](C(F)(F)F)C5)ccc34)ccc2C1=O [compound 25]	< 3 nM
CN1Cc2cc(-c3cccc4cc(C(=O)N5CCC(C(F)(F)F)CC5)ccc34)ccc2C1=O [compound 48]	< 3 nM
Cc1ccc2cc(C(=O)N3CCC(F)(F)CC3)ccc2c1-c1cnc2c(c1)CN(C)C2=O [compound 16]	3 to 10 nM
O=C(c1ccc2c(N3CCn4c(nn(CC(F)F)c4=O)C3)cccc2c1)N1CCCC2CC21 (centres unmarked) [compound 6]	< 3 nM
C[C@@H]1CCCN(C(=O)c2ccc3c(N4CCc5ncccc5C4)cccc3c2)C1 [compound 91]	< 3 nM
O=C(c1ccc2c(-c3ccc4c(=O)[nH]ncc4c3)cccc2c1)N1C[C@H]2CCC[C@H]2C1 [compound 122]	< 3 nM
C[C@@H]1CCN(C(=O)c2ccc3c(N4CCc5ncccc5C4)cccc3c2)C1 [compound 108]	< 3 nM
Cn1cc2c(n1)CCN(c1cccc3cc(C(=O)N4CCCCC4)ccc13)C2 [compound 52]	3 to 10 nM
Cn1nc2n(c1=O)CCN(c1cccc3cc(C(=O)N4CCCC5(CC5)C4)ccc13)C2 [compound 92]	< 3 nM
CN1Cc2cc(-c3cccc4cc(C(=O)N5CCCC5)ccc34)ccc2C1=O [compound 43]	< 3 nM
C[C@H]1CCCN(C(=O)c2ccc3c(N4CCn5c(nn(CC(F)F)c5=O)C4)cccc3c2)C1 [compound 104]	< 3 nM
O=C(c1ccc2c(N3CCc4ncccc4C3)cccc2c1)N1CCCC2(CC2)C1 [compound 105]	< 3 nM
C[C@H]1CCCN(C(=O)c2ccc3c(-c4cnc5c(c4)CN(C)C5=O)cccc3c2)C1 [compound 72]	< 3 nM
Cc1nc2n(n1)CCN(c1cccc3cc(C(=O)N4CCCCC4)ccc13)C2 [compound 21]	< 3 nM
CC1CCN(C(=O)c2ccc3c(-c4ccc5c(=O)[nH]ncc5c4)cccc3c2)CC1 [compound 84]	< 3 nM

Further lines, results first:

IC50	SMILES
≥ 10 nM	Cc1cc2ncccc2cc1-c1cccc2cc(C(=O)N3CCC(F)(F)CC3)ccc12 [compound 36]
< 3 nM	O=C(O)c1ncc(-c2cccc3cc(C(=O)N4CCC(F)(F)CC4)ccc23)cn1 [compound 127]
< 3 nM	Cn1ncc2cc(-c3cccc4cc(C(=O)N5CCC(F)(F)CC5)ccc34)ccc2c1=O [compound 117]
< 3 nM	CC1c2cc(-c3cccc4cc(C(=O)N5CCC(F)(F)CC5)ccc34)ccc2C(=O)N1C (centres unmarked) [compound 10]
< 3 nM	CN1Cc2cc(-c3cccc4cc(C(=O)N5CCC(F)(F)CC5)ccc34)ccc2C1=O [compound 1]
< 3 nM	Cn1ncc2cc(-c3cccc4cc(C(=O)N5CCC(F)(F)CC5)cnc34)ccc2c1=O [compound 147]
< 3 nM	O=C(O)c1ncc(-c2cccc3cc(C(=O)N4CCC(F)(F)CC4)ccc23)cc1F [compound 130]
< 3 nM	O=C(c1ccc2c(-c3cnc4c(=O)[nH]ncc4c3)cccc2c1)N1CCC(F)(F)CC1 [compound 57]
3 to 10 nM	O=C(c1ccc2c(-c3ccc4c[nH]c(=O)cc4c3)cccc2c1)N1CCC(F)(F)CC1 [compound 114]
< 3 nM	O=C(c1ccc2c(-c3ccc4c(=O)n(CCO)ncc4c3)cccc2c1)N1CCC(F)(F)CC1 [compound 118]
< 3 nM	NC(=O)c1ccc(-c2cccc3cc(C(=O)N4CCC(F)(F)CC4)ccc23)cc1F [compound 41]
< 3 nM	O=C(c1cnc2c(-c3ccc4c(=O)[nH]oc4c3)cccc2c1)N1CCC(F)(F)CC1 [compound 141]
< 3 nM	O=C1NCc2cc(-c3cccc4cc(C(=O)N5CCC(F)(F)CC5)ccc34)ccc21 [compound 24]

— US12304897B2, “15-PGDH inhibitors” (KYORIN PHARMACEUTICAL CO., LTD., priority 2019, dated 2025)
